1 molecule from BindingDB's records for patent US12441689 (Epivario, 2025) can be followed below.

The target of this experiment is Acetyl-coenzyme A synthetase, cytoplasmic (Homo sapiens, UniProt Q9NR19). Briefly: ACSS2 Cell-Free Activity Assay.
Acetyl-coenzyme A synthetase, cytoplasmic, sequence (Q9NR19 whole entry): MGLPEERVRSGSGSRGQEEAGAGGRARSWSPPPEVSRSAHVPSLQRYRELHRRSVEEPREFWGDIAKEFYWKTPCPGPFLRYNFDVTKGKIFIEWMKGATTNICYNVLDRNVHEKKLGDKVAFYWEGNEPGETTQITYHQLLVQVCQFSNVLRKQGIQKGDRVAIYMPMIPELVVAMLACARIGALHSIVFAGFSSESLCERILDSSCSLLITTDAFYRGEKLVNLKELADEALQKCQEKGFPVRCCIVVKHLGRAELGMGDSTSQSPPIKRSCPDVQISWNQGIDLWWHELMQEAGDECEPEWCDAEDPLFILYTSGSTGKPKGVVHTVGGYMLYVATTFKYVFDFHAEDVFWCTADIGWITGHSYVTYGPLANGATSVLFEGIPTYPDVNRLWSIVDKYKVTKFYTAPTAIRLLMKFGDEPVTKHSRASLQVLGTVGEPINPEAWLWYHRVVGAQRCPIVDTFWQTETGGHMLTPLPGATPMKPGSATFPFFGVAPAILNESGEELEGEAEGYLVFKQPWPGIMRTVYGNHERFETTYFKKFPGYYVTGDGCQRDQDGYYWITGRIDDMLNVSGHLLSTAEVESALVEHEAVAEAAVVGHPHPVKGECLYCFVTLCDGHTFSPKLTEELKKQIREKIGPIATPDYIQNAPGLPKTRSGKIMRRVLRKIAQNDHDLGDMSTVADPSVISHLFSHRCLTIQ

Experimental: At the end of the reaction, Biomol Green was added for 30 minutes at RT and the activity was measured by reading the absorbance at 620 nm.

With `CCC(F)(F)c1cccc(NC(=O)c2nc(-c3ccc4cc[nH]c4c3)oc2C)c1` [US12441689, Compound 106], the IC50 was greater than 100 nM.

One may read the IC50 as the midpoint of a concentration-inhibition curve. Lower therefore signals greater potency in that assay.
